Legend:
allo-HSCT mice = details: cited from earlier work
steroid-refractory GVHD = details: human, in vivo
Description: The inventors examined patient antibiotic treatment histories during the period from allo-HSCT to the onset of aGI-GVHD and looked for associations between treatment with various antibiotic classes and steroid response for GVHD (FIG. 3A). In our institution, quinolone, cephalosporine, carbapenem and intravenous vancomycin were frequently used in our cohort (FIG. 3B).
A total of 37 aGI-GVHD patients who underwent allo-HSCT during 2017 to 2019 at MD Anderson Cancer Center provided stool samples for the biorepository, and these patient stool samples were analyzed retrospectively as a discovery cohort. Acute GVHD was diagnosed by clinical and/or pathological findings and graded according to standard criteria^40. […] The inventors determined treatment response as previously reported^19: briefly, a lack of response on the basis of organ assessment after at least 3 days of high-dose systemic glucocorticoid therapy; a lack of improvement after 7 days; or treatment failure during steroid tapering or an inability to taper the dose to <0.5 mg/kg/day of methylprednisolone. […] As another cohort, a total of 16 aGI-GVHD patients who underwent allo-HSCT during 2017 to 2020 at MD Anderson Cancer Center provided stool samples collected on day 14 after allo-HSCT for the biorepository, and these patient stool samples were analyzed retrospectively. […]

Structure (SMILES): O=C[C@H](O)[C@@H](O)[C@H](O)CO [xylose]
- GVHD severity (allo-HSCT mice; supplementation in meropenem-treated allogeneic mice): ameliorates GVHD severity

Structure (SMILES): C[C@@H](O)[C@H]1C(=O)N2C(C(=O)O)=C(S[C@@H]3CN[C@H](C(=O)N(C)C)C3)[C@H](C)[C@H]12 [meropenem]
- Colonic GVHD severity (allo-HSCT mice; allo-HSCT mice treated with meropenem in drinking water compared to mice not treated): aggravated colonic GVHD

Structure (SMILES): CCCCCCCCCC(=O)N[C@@H](Cc1c[nH]c2ccccc12)C(=O)N[C@H](CC(N)=O)C(=O)N[C@@H](CC(=O)O)C(=O)N[C@@H]1C(=O)NCC(=O)N[C@@H](CCCN)C(=O)N[C@@H](CC(=O)O)C(=O)N[C@H](C)C(=O)N[C@@H](CC(=O)O)C(=O)NCC(=O)N[C@H](CO)C(=O)N[C@@H]([C@H](C)CC(=O)O)C(=O)N[C@@H](CC(=O)c2ccccc2N)C(=O)O[C@@H]1C [daptomycin]
- Association of antibiotic exposure with steroid-refractory GVHD (steroid-refractory GVHD): significantly associated with steroid-refractory GVHD

Reference: US20260166097A1, “METHODS AND COMPOSITIONS CONCERNING BACTEROIDES OVATUS” (BOARD OF REGENTS, THE UNIVERSITY OF TEXAS SYSTEM, priority 2022, published 2026)
